Test results as given in the supplement of paper PMC10307832.

How the values were obtained:
Assay in all cases: relative viability (nuclei count vs DMSO), 5 days (fraction); higher = more cells survive
Sulindac + Dasatinib = compound: CC1=C(CC(=O)O)c2cc(F)ccc2/C1=C\c1ccc([S+](C)[O-])cc1 [Sulindac] + Cc1nc(Nc2ncc(C(=O)Nc3c(C)cccc3Cl)s2)cc(N2CCN(CCO)CC2)n1 [Dasatinib] (partner 0.075 µM)
Procedure, shortened: (§1)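 Five library-drug doses in √10 steps were combined with a fixed anchor-drug dose, or a single drug was given alone, by pin tool to lung cancer cell lines in 1536-well plates the day after seeding. Nuclei were stained and counted after 5 days. Relative viability is the nuclei count in treated wells over that in vehicle wells, taken as the median of duplicate plates.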

[1] = compound: CN[C@@H]1C[C@H]2O[C@@](C)([C@@H]1OC)n1c3ccccc3c3c4c(c5c6ccccc6n2c5c31)C(=O)NC4 [Staurosporine] + CS(=O)(=O)N1CCN(Cc2cc3nc(-c4cccc5[nH]ncc45)nc(N4CCOCC4)c3s2)CC1 [Pictilisib] (partner 1 µM)
Procedure, shortened: as §1

[2] = compound: CN[C@@H]1C[C@H]2O[C@@](C)([C@@H]1OC)n1c3ccccc3c3c4c(c5c6ccccc6n2c5c31)C(=O)NC4 [Staurosporine] + Cc1nc(Nc2ncc(C(=O)Nc3c(C)cccc3Cl)s2)cc(N2CCN(CCO)CC2)n1 [Dasatinib] (partner 0.075 µM)
Procedure, shortened: as §1

Staurosporine + AZD7762 = compound: CN[C@@H]1C[C@H]2O[C@@](C)([C@@H]1OC)n1c3ccccc3c3c4c(c5c6ccccc6n2c5c31)C(=O)NC4 [Staurosporine] + NC(=O)Nc1cc(-c2cccc(F)c2)sc1C(=O)N[C@H]1CCCNC1 [AZD7762] (partner 0.2 µM)
Procedure, shortened: as §1

Cell Line	relative viability (Sulindac + Dasatinib; first compound 0.08 µM)	relative viability (Sulindac + Dasatinib; first compound 0.253 µM)	relative viability (Sulindac + Dasatinib; first compound 2.53 µM)	relative viability (Sulindac + Dasatinib; first compound 8 µM)	relative viability ([1]; first compound 0.005 µM)	relative viability ([1]; first compound 0.01581 µM)	relative viability ([1]; first compound 0.05 µM)	relative viability ([1]; first compound 0.1581 µM)	relative viability ([1]; first compound 0.5 µM)	relative viability ([2]; first compound 0.005 µM)	relative viability ([2]; first compound 0.01581 µM)	relative viability ([2]; first compound 0.05 µM)	relative viability ([2]; first compound 0.1581 µM)	relative viability ([2]; first compound 0.5 µM)	relative viability (Staurosporine + AZD7762; first compound 0.005 µM)	relative viability (Staurosporine + AZD7762; first compound 0.01581 µM)	relative viability (Staurosporine + AZD7762; first compound 0.05 µM)	relative viability (Staurosporine + AZD7762; first compound 0.1581 µM)	relative viability (Staurosporine + AZD7762; first compound 0.5 µM)	relative viability (Sulindac + Dasatinib; first compound 0.8 µM)
NCI-H1355	0.872	0.756	0.643	0.795	0.277	0.157	0.215	0.153	0.152	0.516	0.166	0.202	0.164	0.152	0.713	0.294	0.237	0.214	0.148	–
NCI-H1395	0.379	0.406	0.368	0.485	0.535	0.315	0.475	0.366	0.394	0.377	0.306	0.383	0.299	0.247	0.38	0.305	0.34	0.303	0.302	0.613
NCI-H1437	0.405	0.462	0.399	0.444	0.449	0.25	0.249	0.108	0.0658	0.391	0.208	0.285	0.173	0.134	1.02	0.686	0.78	0.574	0.219	0.293
NCI-H1651	0.475	0.539	0.419	0.777	0.438	0.334	0.239	0.097	0.089	0.335	0.211	0.239	0.107	0.0833	0.522	0.352	0.295	0.219	0.195	–
NCI-H1666	0.945	0.875	0.871	0.995	0.374	0.267	0.322	0.176	0.149	0.602	0.419	0.484	0.261	0.196	0.701	0.51	0.524	0.404	0.32	0.716
NCI-H1734	0.514	0.428	0.445	0.5	0.317	0.175	0.174	0.105	0.0965	0.309	–	0.136	0.1	0.116	0.539	0.242	0.194	0.0987	0.0915	–
NCI-H1755	0.52	0.478	0.442	0.495	0.135	0.139	0.155	0.138	0.154	0.229	0.206	0.149	–	0.169	0.318	0.228	0.214	0.224	0.224	0.36
NCI-H1792	0.881	0.867	0.812	0.914	0.25	0.0859	0.0905	0.106	–	0.897	0.639	0.451	0.359	0.289	0.227	0.0748	0.0605	0.0466	0.0293	–
NCI-H1793	0.431	0.38	0.408	0.398	0.534	0.248	0.277	0.191	–	0.457	–	0.302	0.141	0.144	0.352	–	0.143	0.186	0.145	0.369
NCI-H1915	0.345	0.335	0.291	0.322	0.719	–	0.35	–	0.0773	0.212	0.0927	0.204	0.0847	0.0869	0.707	0.495	0.346	0.21	0.09	–
NCI-H1944	0.207	0.202	0.2	0.269	0.295	–	0.26	0.231	0.184	0.212	0.271	0.203	0.172	0.134	0.349	0.25	0.275	0.177	0.192	0.18
NCI-H1975	0.411	0.315	0.353	0.375	0.209	0.14	0.156	0.103	0.11	0.29	0.177	0.152	0.1	0.0812	0.536	0.402	0.357	0.261	0.182	0.345
NCI-H1993	0.569	0.516	0.581	0.575	0.869	0.646	0.66	0.526	0.565	0.646	0.454	0.54	0.488	0.509	0.676	0.39	0.407	0.331	0.296	0.543
NCI-H2085	0.209	0.219	0.238	0.213	0.369	0.261	0.282	0.351	0.226	0.244	0.257	0.271	0.235	0.242	0.751	0.42	0.47	0.245	0.276	0.27
NCI-H2087	1.23	0.82	0.8	1.11	0.833	0.435	0.313	0.165	0.138	0.701	0.431	0.311	0.0727	0.0691	1.3	–	0.681	0.207	0.0787	–
NCI-H2126	0.558	0.585	0.57	0.671	0.496	0.309	0.342	0.278	0.286	0.501	0.275	0.301	0.257	0.222	0.914	0.622	0.673	0.268	0.27	0.597
NCI-H2170	0.631	0.586	0.508	0.741	0.302	0.165	0.232	0.151	0.113	0.91	–	0.648	0.106	0.117	1.05	–	0.43	0.0989	0.15	0.659
NCI-H2347	0.282	0.25	0.303	0.275	0.836	0.217	0.487	0.333	0.357	0.226	0.212	0.19	0.233	0.232	0.459	0.264	0.374	–	0.224	–
NCI-H2405	0.22	0.234	0.218	0.228	0.284	0.135	0.103	0.0688	0.064	0.111	0.11	0.114	0.0659	0.0751	0.239	0.141	0.112	–	0.0865	0.331
NCI-H3122	0.79	0.825	0.705	0.894	0.668	0.306	0.566	0.441	0.118	0.861	–	0.756	0.232	0.0614	–	–	0.678	–	0.192	0.74
PC-3 [JPC-3]	0.878	1.05	1.02	1.04	0.655	–	0.446	0.271	0.242	–	0.424	0.375	0.235	0.204	0.829	0.472	0.357	0.327	0.332	0.772
PC-14	0.25	0.293	0.222	0.369	0.237	0.12	0.0413	0.0584	0.0397	0.0423	0.0358	0.0229	0.0364	0.0239	0.302	0.0766	0.0421	0.0892	0.0415	–
RERF-LC-KJ	1.03	0.973	0.802	0.838	0.565	0.308	0.284	0.151	0.141	0.416	0.364	0.223	0.192	0.201	1.07	0.804	0.436	0.24	0.177	0.692
